Measured values as given in patent US20140288110A1, “PPAR MODULATORS” (EVOLVA SA, priority 2006, published 2014).

Assays:
Format in all cases: cell-based
[1] = system: PPARgamma ligand-binding domain (Gal4-PPARgammaLBD); test: PPARgamma transactivation assay (Gal4-PPARgammaLBD, UASx4-TK luc reporter)
Excerpt: This is an example of a transactivation assay for determining PPAR gamma modulating activity.
The UASx4-TK-luc reporter construct (where UAS refers to “upstream activator sequence”) contains four Gal4-responsive elements. The plasmid Gal4-PPARgammaLBD encodes a Gal4-DBD-PPARgamma-LBD fusion protein (i.e. the DNA-binding domain, DBD, of Gal4 fused to the ligand-binding domain, LBD, of PPARgamma) capable of transactivating the UASx4-TK-luc reporter plasmid by binding to the UAS. The CMV-beta-galactosidase plasmid (where CMV is cytomegalovirus) is used for normalization of experimental values.
The cells were replated, typically in 24 well plates, so that at the time of transfection the cells are 50-70% confluent.
Briefly, per well in a 24 well plate, UASx4TKluc (0.2 microg) Gal4-PPARgammaLBD (or pM-hPPARgamma-LBD; 0.1 microg) and CMV-beta-galactosidase (0.05 microg) in 30 μL DMEM (free of serum and antibiotics) is mixed with 30 microL DMEM (free of serum and antibiotics) containing 1 microL metafectenein. The mixture is incubated at room temperature for 20 min to allow formation of nucleic acid-lipid complexes and then approximately 60 microL is added to each well containing the 50-60% confluent cells. […] Cells were harvested after 12-24 hours and luciferase and beta-galactosidase activities were measured according to standard protocols.
“−” means that testing was not performed.

[2] = biological target: T1, full-length hPPARdelta (Homo sapiens, UniProt Q03181); test: Transactivation assay with full length human PPAR delta
T1 construct: expressed in transfected cells
T1 sequence (Q03181 1-441): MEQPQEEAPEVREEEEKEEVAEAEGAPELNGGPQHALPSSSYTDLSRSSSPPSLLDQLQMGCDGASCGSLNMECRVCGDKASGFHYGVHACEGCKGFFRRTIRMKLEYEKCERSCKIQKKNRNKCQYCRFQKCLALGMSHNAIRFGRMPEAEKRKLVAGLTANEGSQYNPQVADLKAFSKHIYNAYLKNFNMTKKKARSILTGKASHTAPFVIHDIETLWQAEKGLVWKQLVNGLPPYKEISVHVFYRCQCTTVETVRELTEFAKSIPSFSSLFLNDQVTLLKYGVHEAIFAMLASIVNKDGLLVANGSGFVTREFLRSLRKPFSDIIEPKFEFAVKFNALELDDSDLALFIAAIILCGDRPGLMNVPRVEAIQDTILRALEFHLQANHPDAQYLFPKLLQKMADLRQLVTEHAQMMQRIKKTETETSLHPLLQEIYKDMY

[3] = biological target: T2, mPPARalphaLBD (Mus musculus, UniProt P23204); test: PPARalpha transactivation assay (mPPARalphaLBD)
T2 construct: expressed in transfected cells
T2 sequence (P23204 239-466 limits assumed): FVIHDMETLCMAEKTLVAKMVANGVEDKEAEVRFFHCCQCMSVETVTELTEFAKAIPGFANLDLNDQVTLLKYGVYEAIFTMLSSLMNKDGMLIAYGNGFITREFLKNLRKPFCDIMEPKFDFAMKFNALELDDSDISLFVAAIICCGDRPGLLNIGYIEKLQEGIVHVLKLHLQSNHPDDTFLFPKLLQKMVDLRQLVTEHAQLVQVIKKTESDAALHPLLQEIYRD
Description: This example describes a transactivation assay for determining PPARalpha modulating activity.
DPD and other ligands are tested for their ability to transactivate PPAR alpha essentially as described in Example 1.

[4] = system: 3T3-L1 cells; test: Adipocyte differentiation assay, inhibition, Oil Red O staining
Description: To test compounds as inhibitors of adipocyte differentiation, 3T3-L1 cells are grown as above until two-day postconfluence (designated day 0), after which the cells are induced to differentiate with DMEM containing 10% fetal bovine serum (FBS), 1 μM dexamethasone (Sigma), 0.5 mM methylisobutylxanthine (Sigma), 1 μg/ml insulin (Roche Molecular Biochemicals) and the test-compound. Cells induced to differentiate in presence of solvent of the test-compounds are used as positive control. After 48 h, the cells are re-fed with DMEM containing 10% FBS supplemented with the test compound or the positive control. From day 4, cells are grown in DMEM with 10% FBS and are changed every second day until day 8. At day 8, cells are stained with Oil Red O as described below.
Cells cultured as described above are used for Oil Red staining. Dishes are washed in PBS and cells were fixed in 3.7% paraformaldehyde for 1 h and stained with oil red O as described in (Hansen et al 1999). Oil red O solution stock solution is prepared by dissolving 0.5 g of Oil Red O (Sigma) in 100 ml of isopropanol. Oil re O working solution is prepared by diluting a stock solution with water (6:4) followed by filtration.

`O=C(O)CC/C=C\C[C@@H]1CO[C@H](c2ccccc2Cl)O[C@@H]1c1ccccc1O` (racemic) [SN1, 4-(Z)-6-(2-o-chlorophenyl-4-o-hydroxyphenyl-1,3-dioxan-cis-5-yl) hexenoic acid] was tested, and the “PPAR gamma modulating activity, in words” value [1] was “PPAR gamma agonist”, the “activation of full-length hPPARdelta” value [2] was “no activation was seen” and the “increase of PPAR alpha transactivation” value [3] was “no transactivation”. The “inhibition of adipocyte differentiation” value [4] was “no significant effect”.
